Source: patent US7338958B2, “Sulfoximine-substituted pyrimidines as CDK-and/or VEGF inhibitors, their production and use as pharmaceutical agents” (Schering AG, priority 2003, dated 2008)
Like-named read-outs stand apart in the source and are kept apart here.

Legend:
[1] = tested on: MCF7, hormone-independent human breast cancer cells; assay: Proliferation assay, MCF7; format: cell-based; details: MCF7, 96 h, 4 days incubation, crystal violet
Excerpt: (§1) Cultivated human tumor cells (MCF7, hormone-independent human breast cancer cells, related to ATCC HTB22; NCI-H460, human non-small-cell lung cancer cells, ATCC HTB-177, HCT 116, human colon cancer cells, ATCC CCL-247; DU 145, hormone-independent human prostate cancer cells, ATCC HTB-81; MaTu-MDR, hormone-independent, multiple pharmaceutical agent-resistant human breast cancer cells, EPO-GmbH, Berlin) were flattened out at a density of about 5000 cells/measuring point, depending on the growth rate of the respective cells, in a 96-well multititer plate in 200 μl of the corresponding growth medium. After 24 hours, the cells of one plate (zero-point plate) were colored with crystal violet (see below), while the medium of the other plates was replaced by fresh culture medium (200 μl), to which the test substances were added in various concentrations (0 μm, as well as in the range of 0.01-30 μm; the final concentration of the solvent dimethyl sulfoxide was 0.5%). The cells were incubated for 4 days in the presence of test substances. The cell proliferation was determined by coloring the cells with crystal violet: the cells were fixed by adding 20 μl/measuring point of an 11% glutaric aldehyde solution for 15 minutes at room temperature. After three washing cycles of the fixed cells with water, the plates were dried at room temperature. The cells were colored by adding 100 μl/measuring point of a 0.1% crystal violet solution (the pH was set at 3 by adding acetic acid). After three washing cycles of the colored cells with water, the plates were dried at room temperature. The dye was dissolved by adding 100 μl/measuring point of a 10% acetic acid solution. The extinction was determined by photometry at a wavelength of 595 nm. The change of cell growth, in percent, was calculated by normalization of the measured values to the extinction values of the zero-point plate (=0%) and the extinction of the untreated (0 μm) cells (=100%).

MaTu-ADR = assay: Proliferation assay, MaTu-ADR; format: cell-based; details: Homo sapiens, 96 h, MaTu-ADR cells, 4 days incubation, crystal violet
Excerpt: as §1

CDK2/CycE = target: T1, CDK2/CycE (Homo sapiens, UniProt P24941); assay: CDK2/CycE Kinase Assay; format: biochemical; details: histone IIIS substrate, 33P-ATP, 15 minutes at 22° C.
T1 construct: GST; purchased ProQinase GmbH, Freiburg; host or cells: baculovirus-infected insect cells (Sf9)
Procedure: Recombinant CDK2- and CycE-GST-fusion proteins, purified from baculovirus-infected insect cells (Sf9), were purchased by ProQinase GmbH, Freiburg. Histone IIIs, which was used as a kinase substrate, was purchased by the Sigma Company.
CDK2/CycE (50 ng/measuring point) was incubated for 15 minutes at 22° C. in the presence of various concentrations of test substances (0 μm, as well as within the range of 0.01-100 μm) in assay buffer [50 mmol of tris/HCl, pH 8.0, 10 mmol of MgCl2, 0.1 mmol of Na ortho-vanadate, 1.0 mmol of dithiothreitol, 0.5 μm of adenosine triphosphate (ATP), 10 μg/measuring point of histone IIIS, 0.2 μCi/measuring point of ^33P-gamma ATP, 0.05% NP40, 12.5% dimethyl sulfoxide]. The reaction was stopped by adding EDTA solution (250 mmol, pH 8.0, 14 μl/measuring point).
(§2) From each reaction batch, 10 μl was applied to P30 filter strips (Wallac Company), and non-incorporated ^33P-ATP was removed by subjecting the filter strips to three washing cycles for 10 minutes each in 0.5% phosphoric acid. After the filter strips were dried for one hour at 70° C., the filter strips were covered with scintillator strips (MeltiLex™ A, Wallac Company) and baked for one hour at 90° C. The amount of incorporated ^33P (substrate phosphorylation) was determined by scintillation measurement in a gamma-radiation measuring device (Wallac).

[2] = tested on: NCI-H460, human non-small-cell lung cancer cells; assay: Proliferation assay, H460; format: cell-based; details: NCI-H460, 96 h, 4 days incubation, crystal violet
Excerpt: as §1

CDK1/CycB = target: T2, CDK1/CycB (Homo sapiens, UniProt P06493); assay: CDK1/CycB Kinase Assay; format: biochemical; details: histone IIIS substrate, 33P-ATP, 15 minutes at 22° C.
T2 construct: GST; purchased ProQinase GmbH, Freiburg; host or cells: baculovirus-infected insect cells (Sf9)
T2 sequence (P06493 whole entry): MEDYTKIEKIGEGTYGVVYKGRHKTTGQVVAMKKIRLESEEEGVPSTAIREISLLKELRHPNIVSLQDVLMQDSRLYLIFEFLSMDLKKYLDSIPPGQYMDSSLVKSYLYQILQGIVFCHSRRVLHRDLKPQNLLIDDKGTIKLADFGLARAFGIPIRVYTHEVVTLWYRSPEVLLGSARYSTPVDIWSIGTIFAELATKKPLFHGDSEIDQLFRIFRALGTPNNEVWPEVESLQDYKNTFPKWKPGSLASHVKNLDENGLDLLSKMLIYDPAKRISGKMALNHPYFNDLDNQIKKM
T2 sequence (P14635 whole entry partner): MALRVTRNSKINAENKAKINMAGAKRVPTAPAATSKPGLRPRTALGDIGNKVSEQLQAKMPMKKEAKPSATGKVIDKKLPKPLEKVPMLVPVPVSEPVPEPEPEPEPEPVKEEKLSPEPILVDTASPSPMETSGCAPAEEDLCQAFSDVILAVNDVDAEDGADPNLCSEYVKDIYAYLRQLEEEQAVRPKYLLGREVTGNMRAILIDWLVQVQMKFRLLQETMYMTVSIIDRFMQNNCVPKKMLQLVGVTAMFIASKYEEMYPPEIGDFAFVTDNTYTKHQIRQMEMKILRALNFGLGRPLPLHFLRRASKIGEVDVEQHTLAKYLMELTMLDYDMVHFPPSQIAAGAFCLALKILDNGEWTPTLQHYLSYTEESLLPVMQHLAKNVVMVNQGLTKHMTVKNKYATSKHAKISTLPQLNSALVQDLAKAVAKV
Procedure: Recombinant CDK1- and CycB-GST-fusion proteins, purified from baculovirus-infected insect cells (Sf9), were purchased from ProQinase GmbH, Freiburg. Histone IIIS, used as a kinase substrate, is available commercially from the Sigma Company.
The reaction was stopped by adding EDTA solution (250 mmol, pH 8.0, 14 μl/measuring point).
as §2, with “33P-ATP” for “^33P-ATP”, “33P” for “^33P”

[3] = tested on: DU 145, hormone-independent human prostate cancer cells; assay: Proliferation assay, DU145; format: cell-based; details: DU-145, 96 h, 4 days incubation, crystal violet
Excerpt: as §1

[4] = target: T3, VEGF receptor tyrosine kinase-2 (Homo sapiens, UniProt P35968); assay: VEGF Receptor-2 Kinase Assay; format: biochemical; details: 33P-ATP, 10 minutes at 22° C.
T3 construct: GST; made in house; host or cells: baculovirus-infected insect cells (Sf9)
T3 sequence (P35968 20-1356): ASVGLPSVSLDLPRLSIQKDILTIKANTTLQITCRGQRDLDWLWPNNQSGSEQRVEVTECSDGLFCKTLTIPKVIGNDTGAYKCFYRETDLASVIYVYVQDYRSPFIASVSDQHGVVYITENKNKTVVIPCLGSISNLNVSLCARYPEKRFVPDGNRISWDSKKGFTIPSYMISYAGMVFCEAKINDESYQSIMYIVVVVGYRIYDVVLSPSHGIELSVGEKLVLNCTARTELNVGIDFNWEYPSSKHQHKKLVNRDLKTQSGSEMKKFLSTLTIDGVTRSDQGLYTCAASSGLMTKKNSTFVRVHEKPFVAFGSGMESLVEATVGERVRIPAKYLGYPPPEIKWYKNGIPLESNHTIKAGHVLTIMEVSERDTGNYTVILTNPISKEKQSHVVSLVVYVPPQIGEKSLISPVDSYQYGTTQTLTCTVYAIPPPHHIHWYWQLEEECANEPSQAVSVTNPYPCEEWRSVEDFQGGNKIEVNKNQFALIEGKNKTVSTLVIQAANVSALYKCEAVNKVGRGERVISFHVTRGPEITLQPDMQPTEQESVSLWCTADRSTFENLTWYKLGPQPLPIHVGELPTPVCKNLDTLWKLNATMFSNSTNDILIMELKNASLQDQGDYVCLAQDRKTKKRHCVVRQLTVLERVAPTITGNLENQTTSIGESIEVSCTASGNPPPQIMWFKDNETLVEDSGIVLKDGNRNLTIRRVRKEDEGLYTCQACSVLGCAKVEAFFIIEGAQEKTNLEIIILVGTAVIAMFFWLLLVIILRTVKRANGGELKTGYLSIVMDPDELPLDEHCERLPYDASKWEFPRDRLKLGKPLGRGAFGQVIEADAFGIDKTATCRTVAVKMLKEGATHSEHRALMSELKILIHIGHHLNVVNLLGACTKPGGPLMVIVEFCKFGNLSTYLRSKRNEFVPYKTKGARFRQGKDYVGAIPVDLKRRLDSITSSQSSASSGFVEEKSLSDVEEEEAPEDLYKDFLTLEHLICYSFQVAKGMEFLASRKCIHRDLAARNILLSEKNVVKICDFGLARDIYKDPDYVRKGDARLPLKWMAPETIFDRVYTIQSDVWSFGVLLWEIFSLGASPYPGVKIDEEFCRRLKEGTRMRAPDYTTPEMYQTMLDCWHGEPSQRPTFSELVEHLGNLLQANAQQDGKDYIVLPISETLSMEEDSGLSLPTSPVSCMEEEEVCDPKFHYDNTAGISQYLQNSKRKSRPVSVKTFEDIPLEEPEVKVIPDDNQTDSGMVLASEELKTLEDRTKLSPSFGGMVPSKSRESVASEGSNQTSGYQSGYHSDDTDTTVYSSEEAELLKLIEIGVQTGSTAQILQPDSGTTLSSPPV
Procedure: VEGF Receptor-2 Kinase Assay
Recombinant VEGF receptor tyrosine kinase-2 was purified as a GST fusion protein from baculovirus-infected insect cells (Sf9). Poly-(Glu4Tyr), which was used as a kinase substrate, was purchased by the Sigma Company.
VEGF receptor tyrosine kinase (90 ng/measuring point) was incubated for 10 minutes at 22° C. in the presence of various concentrations of test substances (0 μm, as well as within the range of 0.001-30 μm) in 30 μl of assay buffer [40 mmol of Tris/HCl, […], 10 mmol of MgCl2, 1 mmol of MnCl2, 3 μmol of Na ortho-vanadate, 1.0 mmol of dithiothreitol, 8 μmol of adenosine trisphosphate (ATP), 27 μg/measuring point of poly-(Glu4Tyr), 0.2 μCi/measuring point of 33P-gamma ATP, 1% dimethyl sulfoxide]. The reaction was stopped by adding EDTA solution (250 mmol, pH 7.0, 10 μl/measuring point).
as §2, with “33P-ATP” for “^33P-ATP”, “33P” for “^33P”

[5] = poly-(Glu4Tyr) substrate, read-out: VEGF-R2 IC50

Row | Compound | IC50 [1] [nM] | IC50 (MaTu-ADR) [nM] | IC50 (CDK2/CycE) [nM] | IC50 [2] [nM] | IC50 (CDK1/CycB) [nM] | IC50 [3] [nM] | IC50 ([4]; VEGF-R2 IC50, poly-(Glu4Tyr) substrate) [nM] | IC50 [4, 5] [nM]
1 | C[C@@H](Nc1nc(Nc2ccc(S(=N)(=O)C3CC3)cc2)ncc1Br)C(C)(C)O (mixture of isomers) [Example 1.6, (RS)-S-[4-({5-bromo-4-[(R)-(2-hydroxy-1,2-dimethylpropyl)amino]pyrimidin-2-yl}amino)phenyl]-S-cyclopropylsulfoximide] | 140 | < 100 | 8 | < 100 | 14 | < 100 | – | –
2 | C[C@H](CO)Nc1nc(Nc2ccc(S(=O)(CC3CC3)=NS(=O)(=O)CC[Si](C)(C)C)cc2)ncc1Br (mixture of isomers) [Example 1.7, (RS)-S-[4-({5-bromo-4-[(R)-(2-hydroxy-1-methylethyl)amino]pyrimidin-2-yl}amino)phenyl]-S-(cyclopropylmethyl)-N-[2-(trimethylsilyl)ethylsulfonyl]sulfoximide] | 1100 | – | > 1000 | – | > 1000 | – | 240 | –
3 | C[C@@H](Nc1nc(Nc2ccc(S(=N)(=O)C3CCCC3)cc2)ncc1Br)C(C)(C)O (mixture of isomers) [Example 1.11, (RS)-S-[4-({5-bromo-4-[(R)-(2-hydroxy-1,2-dimethylpropyl)amino]pyrimidin-2-yl}amino)phenyl]-S-cyclopentylsulfoximide] | 100 | 100 | 25 | < 100 | 44 | < 100 | – | –
4 | COc1cc(Nc2ncc(Br)c(O[C@H](C)[C@@H](C)O)n2)ccc1S(C)(=N)=O (mixture of isomers) [Example 1.24, (RS)-S-[4-({5-bromo-4-[(1R,2R)-2-hydroxy-1-methylpropoxy]pyrimidin-2-yl}amino)-2-methoxyphenyl]-S-methyl sulfoximide] | < 100 | 80 | – | 70 | 5 | 130 | – | 150
5 | CN=S(C)(=O)c1ccc(Nc2ncc(Br)c(N[C@H](C)[C@@H](C)O)n2)cc1 (mixture of isomers) [Example 1.28, (RS)-S-[4-({5-bromo-4-[(1R,2R)-(2-hydroxy-1-methylpropyl)amino]pyrimidin-2-yl}amino)phenyl]-N,S-dimethyl-sulfoximide] | – | 200 | 7 | 120 | 14 | 200 | – | –
6 | CCOC(=O)N=S(=O)(CC)c1ccc(Nc2ncc(Br)c(O[C@H](C)[C@@H](C)O)n2)cc1 (mixture of isomers) [Example 1.39, (RS)-S-[4-({5-bromo-4-[(1R,2R)-2-hydroxy-1-methylpropoxy]pyrimidin-2-yl}amino)phenyl]-N-(ethoxycarbonyl)-S-ethyl sulfoximide] | 300 | 900 | 19 | 300 | 49 | 300 | – | –
7 | C[C@@H](Nc1nc(Nc2ccc(S(C)(=N)=O)cc2)ncc1Br)C(C)(C)O (mixture of isomers) [Example 1.41, (RS)-S-[4-({5-bromo-4-[(R)-(2-hydroxy-1,2-dimethylpropyl)amino]pyrimidin-2-yl}amino)phenyl]-S-methyl sulfoximide] | 80 | 70 | – | 70 | – | 90 | – | –
8 | CCS(=N)(=O)c1ccc(Nc2ncc(Br)c(N[C@H](COC)[C@@H](C)O)n2)cc1 (mixture of isomers) [Example 1.48, (RS)-S-{4-[(5-bromo-4-{[(1R,2R)-2-hydroxy-1-(methoxymethyl)-propyl]amino}pyrimidin-2-yl)amino]phenyl}-S-ethyl sulfoximide] | – | – | – | 300 | – | 400 | – | 270
9 | CCS(=N)(=O)c1ccc(Nc2ncc(Br)c(N[C@H](C)[C@@H](C)O)n2)cc1 (mixture of isomers) [Example 1.51, (RS)-S-[4-({5-bromo-4-[(1R,2R)-(2-hydroxy-1-methylpropyl)amino]pyrimidin-2-yl}amino)phenyl]-S-ethyl sulfoximide] | – | 60 | – | 50 | 5 | 50 | – | 26
10 | C[C@H](CO)Nc1nc(Nc2ccc(S(C)(=O)=NS(=O)(=O)CC[Si](C)(C)C)cc2)ncc1Br (mixture of isomers) [Example 2.1, (RS)-S-[4-({5-bromo-4-[(R)-(2-hydroxy-1-methylethyl)amino]pyrimidin-2-yl}amino)phenyl]-S-methyl-N-[2-(trimethylsilyl)ethylsulfonyl]sulfoximide] | 900 | – | 390 | – | – | – | – | 74
11 | CCOc1nc(Nc2ccc(S(=N)(=O)CC)cc2)ncc1Br (racemic) [Example 1.63, (RS)-S-{4-[(5-bromo-4-ethoxypyrimidin-2-yl)amino]phenyl}-S-ethyl sulfoximide] | 900 | – | 63 | – | 200 | – | – | 89
12 | CS(=N)(=O)c1ccc(Nc2ncc(Br)c(Nc3ccccc3)n2)cc1 (racemic) [Example 2.3, (RS)-S-(4-{[5-bromo-4-(phenylamino)pyrimidin-2-yl]amino}phenyl)-S-methyl sulfoximide] | 300 | 120 | – | 400 | 160 | 190 | – | –
13 | C[C@@H](O)[C@@H](C)Nc1nc(Nc2ccc(S(C)(=N)=O)cc2)ncc1Br (single isomer, unassigned) [Example 1.2] | – | 40 | – | 30 | – | 40 | – | –
14 | C[C@@H](Nc1nc(Nc2ccc(S(=N)(=O)CCO)cc2)ncc1Br)C(C)(C)O (single isomer, unassigned) [Example 1.14] | 90 | – | – | 100 | 7 | – | – | 69
